Source: patent US9724380B2, “Method and compositions for synchronizing time of insemination in gilts” (JBS UNITED ANIMAL HEALTH II LLC, priority 2012, dated 2017)

What was measured:
[1] = test system: gilts; assay: Example 5: ovulation monitored by transrectal ultrasonography after 100, 200 or 400 mcg triptorelin gel intravaginally at 120 h after MATRIX withdrawal; format: in vivo, swine; details: for Percentage ovulated by 48 hours: blood-sampled subpopulation; for % of Sows Ovulating: raw average, PTK 2-07
Procedure: All gilts were individually fed MATRIX® as a top-dress for 14 or 15 days at the recommended rate of 15 mg/gilt/day. Gilts were withdrawn from MATRIX® feeding (last top-dress in the morning on Day 0) and allocated to each of the following treatments. Controls were vehicle gel treated (vehicle gel without triptorelin) at 120 (+/−2) hours following MATRIX® withdrawal (last top dress). The other gilts were given 100, 200 or 400 mcg triptorelin as the acetate in a methylcellulose gel formulation 120 (+/−2) hours following MATRIX® withdrawal. The four treatments were: • 1. Vehicle gel (VG): vehicle gel without triptorelin at 120 (+/−2) hours after MATRIX® withdrawal. • 2. TG 100: 100 mcg (2 mL 50 mcg/mL) triptorelin gel at 120 (+/−2) hours after MATRIX® withdrawal. • 3. TG 200: 200 mcg (2 mL 100 mcg/mL) triptorelin gel at 120 (+/−2) hours after MATRIX® withdrawal. • 4. TG 400: 400 mcg (2 mL 200 mcg/mL) triptorelin gel at 120 (+/−2) hours after MATRIX® withdrawal.
(§1) Triptorelin (pGlu-His-Trp-Ser-Tyr-D-Trp-Leu-Arg-Pro-Gly-NH2) was supplied in the acetate form, from Bachem, Torrance, Calif. (Item H-4075 CGMP grade). Triptorelin gel (100-400 mcg/2 mL dose) was formulated by Argenta (Auckland, NZ) in a gel composed of Methocel Premium A4000 (Dow Chemical), citrate buffer (pH 5.5), NaCl, methionine, and methyl and propyl parabens. Fifty-four milliliters of triptorelin gel (100 mcg triptorelin acetate/mL) was packaged in Amber Borosilicate Glass Serum Vials (610206-50) with a Gray Butyl Pharmaceutical Serum Vial Stopper (73828A-SS) with a Standard Aluminum Seal (SAS20NAT). […] MATRIX® was supplied as the US commercially available form.
Ovulation was monitored twice on Day 5 (8 hours and 16 hours post-treatment) and every 8 hours on Day 6 and Day 7 or until ovulation was confirmed or 176 hours following last MATRIX® feeding. The ovulatory status of all gilts was monitored by transrectal ultrasonography. An Aloka 500 ultrasound machine is used for this purpose, with a 7.5 MHz linear array transducer attached to a fixed-angle PVC stabilizing rod to facilitate insertion into the rectum. The transducer and PVC rod are coated with a gynecological lubricant and gently inserted into the rectum until the ovaries can be visualized, one at a time. The diameters of the three largest follicles were recorded (to the nearest 0.1 mm) at each scanning. A gilt was declared to have ovulated when the number of large follicles (≧6.5 mm) fell to less than 3.
(§2) A single 2 mL dose of triptorelin gel or vehicle gel was deposited within approximately 1-2 cm posterior to the cervix with a catheter similar to those used for artificial insemination. The dose was delivered using a standard multi-dose applicator attached to the catheter. A new disposable sheath, which surrounds the catheter, was used for each gilt.

[2] = test system: gilts; assay: Example 1: ovulation monitored by transrectal ultrasonography after 200 mcg triptorelin gel intravaginally at 96, 120 or 144 h after MATRIX withdrawal; format: in vivo, swine; details: 200 mcg T, raw average, PTK 1-07 (rep 3)
Procedure: All gilts were individually fed MATRIX® as a top-dress for 14 days at the recommended rate of 15 mg/gilt/day. Gilts were withdrawn from MATRIX® feeding (last top feed in the morning on Day 0) and allotted to treatments. Controls were treated with a 1.2% methylcellulose gel formulation without triptorelin at 96 hours following MATRIX® withdrawal (last top-dress). The remaining gilts received 200 mcg triptorelin, as the acetate, in a 1.2% methylcellulose gel formulation intravaginally at various times after MATRIX® withdrawal. The four treatments were: 1) vehicle gel (VG) treatment at 96 hours after MATRIX® withdrawal, 2) triptorelin gel (TG) treatment at 96 hours after MATRIX® withdrawal, 3) TG treatment at 120 hours after MATRIX® withdrawal and 4) TG treatment at 144 hours after MATRIX® withdrawal. All gilts were monitored for their estrous and ovulatory status as described below. Gilts included in replicate 1 were selected from terminal line commercial production gilts located in grow/finish barns. Sexual maturity, as indicated by one or more estrous periods, was not verified prior to the start of MATRIX® feeding. Gilts included in replicate 2 were selected from a maternal line gilt population. Sexual maturity was verified by at least one estrous period verified and recorded prior to starting MATRIX® feeding.
as §1, with “(200 μg/2 mL)” for “(100-400 mcg/2 mL dose)”, “methionine and EDTA (as potential stabilizers)” for “methionine,”, “parabens (as preservatives).” for “parabens.”
The ovulatory status of all gilts was monitored by transrectal ultrasonography. For replicate one, ovulation was monitored two times on Day 5, then three times a day from Day 6 to Day 8. For replicate two, ovulation was monitored three times a day from Day 5 to Day 8. An Aloka 500 ultrasound machine with a 7.5 MHz linear array transducer attached to a fixed-angle PVC stabilizing rod to facilitate insertion into the rectum was used for this purpose. The transducer and PVC rod were coated with a gynecological lubricant and gently inserted into the rectum until the ovaries were visualized, one at a time. The diameters of the three largest follicles were recorded (to the nearest 0.1 mm) at each scanning. A gilt was declared to have ovulated when the number of large follicles (≧6.5 mm) fell to less than 3.
as §2
Data were analyzed using the Mixed Models procedures of SAS. Models included main effects of time of treatment following the last feeding of MATRIX®, replicate, and treatment by replicate interaction. Differences between treatments were tested on least squares means estimates using the T test at P<0.05. Data for analysis were tested for assumptions of data normality.

SMILES: CC(C)C[C@H](NC(=O)[C@@H](Cc1c[nH]c2ccccc12)NC(=O)[C@H](Cc1ccc(O)cc1)NC(=O)[C@H](CO)NC(=O)[C@H](Cc1c[nH]c2ccccc12)NC(=O)[C@H](Cc1c[nH]cn1)NC(=O)[C@@H]1CCC(=O)N1)C(=O)N[C@@H](CCCNC(=N)N)C(=O)N1CCC[C@H]1C(=O)NCC(N)=O [T, pGlu-His-Trp-Ser-Tyr-D-Trp-Leu-Arg-Pro-Gly-NH2]
- Percentage ovulated by 48 hours ([1]; 100 mcg T (n = 6)): 100%
- % of Sows Ovulating ([1]; 100 mcg T, 128 h post-MATRIX (8 h post-T)): 0.0%
- % of Sows Ovulating ([1]; 100 mcg T, 136 h post-MATRIX (16 h post-T)): 5.0%
- % of Sows Ovulating ([1]; 100 mcg T, 144 h post-MATRIX (24 h post-T)): 20.0%
- % of Sows Ovulating ([1]; 100 mcg T, 152 h post-MATRIX (32 h post-T)): 30.0%
- % of Sows Ovulating ([1]; 100 mcg T, 160 h post-MATRIX (40 h post-T)): 60.0%
- % of Sows Ovulating ([1]; 100 mcg T, 168 h post-MATRIX (48 h post-T)): 95.0%
- % of Sows Ovulating ([1]; 100 mcg T, 176 h post-MATRIX (56 h post-T)): 100.0%
- Percentage ovulated by 48 hours ([1]; 200 mcg T (n = 7)): 100%
- % of Sows Ovulating ([1]; 200 mcg T, 128 h post-MATRIX (8 h post-T)): 0.0%
- % of Sows Ovulating ([1]; 200 mcg T, 136 h post-MATRIX (16 h post-T)): 0.0%
- Percentage ovulated by 48 hours ([1]; 400 mcg T (n = 6)): 100%
- % of Sows Ovulating ([1]; 400 mcg T, 128 h post-MATRIX (8 h post-T)): 4.5%
- % of Sows Ovulating ([1]; 400 mcg T, 136 h post-MATRIX (16 h post-T)): 9.1%
- % of Sows Ovulating ([1]; 400 mcg T, 168 h post-MATRIX (48 h post-T)): 100.0%
- % of Sows Ovulating ([1]; 400 mcg T, 176 h post-MATRIX (56 h post-T)): 100.0%
- % of Sows Ovulating ([2]; 128 h post-MATRIX (8 h post-T)): 0.0%
- % of Sows Ovulating ([2]; 136 h post-MATRIX (16 h post-T)): 10.0%
- % of Sows Ovulating ([2]; 144 h post-MATRIX (24 h post-T)): 30.0%
- % of Sows Ovulating ([2]; 152 h post-MATRIX (32 h post-T)): 70.0%
- % of Sows Ovulating ([2]; 160 h post-MATRIX (40 h post-T)): 80.0%
- % of Sows Ovulating ([2]; 168 h post-MATRIX (48 h post-T)): 90.0%
- % of Sows Ovulating ([2]; 176 h post-MATRIX (56 h post-T)): 100.0%
